# Measurements from publication PMC9657696, “Novel BH4-BCL-2 Domain Antagonists Induce BCL-2-Mediated Apoptosis in Triple-Negative Breast Cancer” (Cancers, 2022).
# Where two headings read alike, the source gives them in different places.
# What was measured:
# MDA-MB-231 xenografts = assay: MDA-MB-231 xenograft in athymic mice; type: in vivo
# Method: Mice were sheltered in the animal facility of Sri Ramachandra Medical College and Research Institute (Chennai, India), which has been certified as a pathogen-free animal house for performing mice experiments. All the methods were carried out according to the IAEC guidelines and regulations. Experimental procedures were framed and approved by the Institutional Animal Ethical Committee (IAEC) (IAEC approval number: IAEC/57/SRIHER/639/2019). The entire study was in accordance with the ARRIVE guidelines to ensure the safety of the animals. The sizes of the mice groups were chosen in accordance with statistical significance; the measurements and analysis were performed in an unbiased manner.
# 4–6 week-old female athymic mice were transplanted with MDA-MB-231 triple-negative breast tumor cells. The growth media with MDA-MB-231 cells and Matrigel (BD Biosciences) at a 1:1 ratio was mixed and injected into mice. The tumor lengths and widths were measured with an electronic caliper 2–3 times a week. The tumor volume was calculated using the formula: (length × width^2)/2. All of the mice were randomized after 10 days, as the tumor volume reached approximately 80–90 mm^3. A total of 25 mice were sorted into 5 treatment groups, followed by a compound treatment (SM216, SM396, SM949, and ABT199) or vehicle (n = 5 for each group). The drug compounds were formulated in PBS and administrated as i.p doses (100 mg/Kg w) for two schedules per week. Tumor growth inhibition (TGImax) was calculated using the following equation: (1) Tumor Growth Inhibition =1−mean of volume of treated at day x−mean of volume treated at day 0/mean of volume of control at day x−mean of volume of control at day 0×100
# As the tumor size exceeded 600 mm^3, we euthanized the mice for ethical reasons. The euthanasia procedure used was carbon dioxide asphyxiation followed by cervical dislocation. The mean of the tumor volume ± SEM for different time points was represented until we sacrificed at least one mouse in a group.
# To test the in vivo anti-cancer efficacy of the novel small molecules viz. SM216, SM396, and SM949, 4–6 weeks old female athymic mice were xenografted with MDA-MB-231 cells on the mammary fat pads and palpable tumors were induced. […] Tumor volumes were measured at regular intervals and the data were tabulated. […] The growth kinetics and maximal tumor growth inhibition (TGImax) are depicted as tumor volumes (five groups of mice treated with different drugs) in Figure 6e,f. The average tumor volume for all groups on day 0 of treatment was 92.77 mm^3. We observed that all three lead molecules inhibited tumor growth efficiently compared to the vehicle control. […] These compounds achieved regression of 60% after 20 days of treatment. […] Moreover, these compounds were well tolerated with no weight loss and hemolysis in all treatment groups. The survival was 100% for all treatment mice groups until the termination of the study. […] A decrease in the expression of PCNA was observed upon treatment with SM396 compared to the vehicle control.
# BT549 cells = assay: MTT cell viability assay, BT549; type: cell-based; settings: Homo sapiens
# Method: An MTT (3-(4,5-dimethylthiazol-2-yl)-2,5-diphenyltetrazolium bromide)-based colorimetric assay was performed to measure the cell viability. On a 96-well plate, cells were seeded at a density of 3000–5000 cells/well. The cell number for the assay was decided based on the exponential growth of untreated cells. The cells were treated with compounds for 72 h followed by incubation with MTT for 4 h at 37 °C. The formazan crystals were dissolved in DMSO and absorbance was measured at 540 nm. The percentage viability was calculated as % cell viability = (OD treated cells/OD control cells) × 100, and the IC50 was estimated by curve-fitting using the non-linear regression of a dose–response curve. The experiments were repeated at least two to three times.
# The top 29 lead molecules, guided by the in silico results, were subjected to further in vitro validation by assessing the cellular cytotoxicity in both cancer (Figure 3a) and normal cell lines (Supplementary Figure S2a) using the MTT assay. Moreover, we performed MTT (Supplementary Figure S3c) and Annexin V assays on an additional cell line, BT549, a triple-negative breast cancer model, to validate the activity of the compounds (Supplementary Figure S4). […] We also provided the AUC plots for the top three compounds for a better understanding of the activity (Supplementary Figure S5). […]
compound,measurement,setting,value
"CC1(C)CCC(CN2CCN(c3ccc(C(=O)NS(=O)(=O)c4ccc(NCC5CCOCC5)c([N+](=O)[O-])c4)c(Oc4cnc5[nH]ccc5c4)c3)CC2)=C(c2ccc(Cl)cc2)C1 [ABT-199, venetoclax]","Tumor Volume, Mean","MDA-MB-231 xenografts; Day 0, i.p. 100 mg/kg, two schedules per week",95.35 mm^3
same,"Tumor Volume, Mean","MDA-MB-231 xenografts; Day 6, i.p. 100 mg/kg",162.15 mm^3
same,"Tumor Volume, Mean","MDA-MB-231 xenografts; Day 9, i.p. 100 mg/kg (column head printed SEM)",313.94 mm^3
same,"Tumor Volume, Mean","MDA-MB-231 xenografts; Day 13, i.p. 100 mg/kg",313.03 mm^3
same,"Tumor Volume, Mean","MDA-MB-231 xenografts; Day 15, upon 4 doses, i.p. 100 mg/kg",371.94 mm^3
same,"Tumor Volume, Mean","MDA-MB-231 xenografts; Day 17, i.p. 100 mg/kg",424.83 mm^3
same,"Tumor Volume, Mean","MDA-MB-231 xenografts; Day 20, i.p. 100 mg/kg",382.6 mm^3
same,IC50,"BT549 cells; BT-549, Supplementary Figure S3c legend, read-out: IC50 (dose-response curve fitting)",7.19 µM
same,IC50,"BT549 cells; BT-549, read-out: IC50 (non-linear regression of dose-response curves)",7.2 µM
